Source: PubChem BioAssay (NCI)
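Growth conditions: 96-well plates. Treatment: test compound, 48 hours, 5 concentrations. Analysis: linear interpolation between bracketing concentrations; unreached endpoints set to highest concentration. GI50: concentration for 50% inhibition of growth. At the TGI there is no net growth.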

Tests used:
Test in all cases: DTP human tumour cell line panel, 48 h
[1] = test system: UACC-257 melanoma
[2] = test system: NCI-H226 lung
[3] = test system: RPMI-8226 leukemia
[4] = test system: HT29 colon
[5] = test system: EKVX NSCLC
[6] = test system: MALME-3M melanoma
[7] = test system: SK-MEL-5 melanoma
[8] = test system: K-562 leukemia
[9] = test system: OVCAR-5 ovarian
[10] = test system: UO-31 renal

| SMILES | GI50 [1] | TGI [1] | GI50 [2] | TGI [2] | GI50 [3] | TGI [3] | GI50 [4] | TGI [4] | GI50 [5] | TGI [5] | GI50 [6] | TGI [6] | GI50 [7] | TGI [7] | GI50 [8] | TGI [8] | GI50 [9] | TGI [9] | GI50 [10] [µM] | TGI [10] [µM] |
| --- | --- | --- | --- | --- | --- | --- | --- | --- | --- | --- | --- | --- | --- | --- | --- | --- | --- | --- | --- | --- |
| Clc1ccc(Nc2nc(Nc3ccccc3)nc(Nc3ccc(-c4cc(-c5ccc(Cl)cc5)on4)cc3)n2)cc1 | 29.8 µM | > 100 µM | 38.8 µM | > 100 µM | 18.7 µM | > 100 µM | 10.8 µM | 25.5 µM | 3.14 µM | 88.4 µM | 31.5 µM | 93 µM | 24 µM | > 100 µM | 21.4 µM | > 100 µM | 20.9 µM | 89.1 µM |  |  |
| N#Cc1ccccc1C#C/C=C\C#Cc1ccccc1N |  | > 22.8 µM | 6.6 µM | > 38.5 µM | 2.28 µM | > 93 µM | 4.38 µM | > 100 µM | 10 µM | > 57.3 µM | 2.86 µM | 40.2 µM | 3.34 µM | 19 µM | 4.12 µM | > 100 µM | 5 µM | > 62.6 µM | 4.79 | > 25.7 |
| CC(=O)Nc1ccc(C(=O)NN2C(=O)C(Cl)C2c2cccc([N+](=O)[O-])c2)cc1 (centres undefined) |  | > 100 µM |  | > 100 µM |  | > 100 µM |  | > 100 µM |  |  |  | > 100 µM |  | > 100 µM |  | > 100 µM |  | > 100 µM |  | > 100 |
| O=S(=O)(O)c1ccc2c(N=Nc3ccc(N=Nc4ccccc4)cc3)c(O)c(S(=O)(=O)O)cc2c1 |  | > 100 µM |  | > 100 µM |  | > 100 µM |  | > 100 µM |  | > 100 µM |  | > 100 µM |  | > 100 µM |  | > 100 µM |  | > 100 µM |  | > 100 |
| Nc1cc(S(=O)(=O)O)cc2ccc(S(=O)(=O)O)cc12 |  | > 100 µM |  |  |  | > 100 µM |  | > 100 µM |  | > 100 µM |  | > 100 µM |  | > 100 µM |  | > 100 µM |  | > 100 µM |  | > 100 |
| O=C(Nc1ccc(-n2ccc3c(NC(=O)c4ccccc4)nccc32)cc1)Nc1cccc(C(F)(F)F)c1 | 11.2 µM | 26 µM | 14.3 µM | 29.8 µM | 1.64 µM | 4.81 µM | 1.85 µM | 4.93 µM | 5.73 µM | 22.1 µM | 13.7 µM | 31.2 µM | 7.2 µM | 20.7 µM | 2.68 µM | 10.5 µM | 8.72 µM | 22.2 µM | 13.4 | 31.7 |
| C[N+]1(CCC(=O)c2ccccc2)CCC2CCC(C2)C1 (centres undefined) |  | > 100 µM |  | > 100 µM |  | > 100 µM |  | > 100 µM |  | > 100 µM |  | > 100 µM |  | > 100 µM |  | > 100 µM |  | > 100 µM |  | > 100 |
| CC1=CC(O)C(C(O)(C(F)(F)F)C(F)(F)F)C(C)(C)C1 (centres undefined) |  | > 10 µM |  | > 10 µM |  | > 10 µM |  | > 10 µM |  | > 10 µM |  | > 10 µM |  | 0.163 µM |  | > 10 µM |  | > 10 µM |  |  |
| Cc1oc(N)c(S(=O)(=O)c2cc3ccccc3n(O)c2=N)c1C |  | > 100 µM |  | > 100 µM |  | > 100 µM |  | > 100 µM |  | > 100 µM |  | > 100 µM |  | > 100 µM |  |  |  | > 100 µM |  | > 100 |
| CC1=C[C@@H](C)C[C@]2(C)CC[C@H](O2)[C@]23CC[C@](CO)(C[C@H](O2)[C@@H]2O[C@@](C)(CC2=O)[C@@H](O)[C@H]2CC[C@@]4(CCC[C@@H](O4)[C@H](C)C(=O)O[C@H]4C[C@H]([C@]5(O)OCC[C@H](C)[C@@H]5O)O[C@H]4C=C1)O2)O3 |  |  |  |  |  | > 10 µM |  | > 10 µM |  |  |  | 0.196 µM |  | > 10 µM |  | > 10 µM |  | > 10 µM |  | 0.207 |
| CC1C(=O)c2cc3c(cc2CCN(C)Cc2c1ccc1c2OCO1)OCO3 (centres undefined) | 36.1 µg/mL | > 75 µg/mL | > 75 µg/mL | > 75 µg/mL | 34.6 µg/mL | > 75 µg/mL | 19.6 µg/mL | > 75 µg/mL | > 75 µg/mL | > 75 µg/mL | > 75 µg/mL | > 75 µg/mL | 37.1 µg/mL | > 75 µg/mL | 24.7 µg/mL | > 75 µg/mL | > 75 µg/mL | > 75 µg/mL |  |  |
| N=c1ccc2nc(N)nn(O)c-2c1 |  | > 100 µM |  | > 100 µM |  | > 100 µM |  | > 100 µM |  | > 100 µM |  |  |  | > 100 µM |  | > 100 µM |  | > 100 µM |  | > 100 |
| CC1(C(=O)O)C[C@](C)(C(=O)OCc2ccccc2)C[C@](C)(C(=O)OCc2ccccc2)C1 (some centres undefined) |  | > 100 µM |  | > 100 µM |  | 72.6 µM |  | > 100 µM |  | 75.7 µM |  | > 100 µM |  | > 100 µM |  | > 100 µM |  | > 100 µM |  | 40.7 |
| CCOC(=O)c1c(-c2cccc(Cl)c2)c(C(=O)OC)c(C)c2sc(C=O)nc12 |  | > 100 µM |  | 44.2 µM |  | 46.4 µM |  | 49.5 µM |  | 31.9 µM |  | 38 µM |  | 30.4 µM |  | 89.8 µM |  | 35.7 µM |  | 37.8 |
| OCCCSCCO |  | > 100 µM |  | > 100 µM |  | > 100 µM |  | > 100 µM |  | > 100 µM |  | > 100 µM |  | > 100 µM |  | > 100 µM |  | > 100 µM |  | > 100 |
| Cc1ccc2nc(-c3ccc(NC(=O)c4ccc(N)cc4)c(S(=O)(=O)O)c3)sc2c1 |  | > 100 µM |  | > 100 µM |  | > 100 µM |  | > 100 µM |  | > 100 µM |  | > 100 µM |  | > 100 µM |  | > 100 µM |  | > 100 µM |  | > 100 |
| Cc1cc2ccc(OC(=O)c3ccc(N=C(N)N)cc3)cc2oc1=O |  | > 100 µM |  | 56.2 µM |  | 55.1 µM |  | 70.4 µM |  | > 100 µM |  | 60.7 µM |  | > 100 µM |  | 74.9 µM |  | > 100 µM |  | > 100 |
| O=C(CC(c1ccccc1)C1C(=O)NC(=S)NC1=O)c1ccc([N+](=O)[O-])cc1 (centres undefined) |  | > 100 µM |  | > 100 µM |  | > 100 µM |  | > 100 µM |  | > 100 µM |  | > 100 µM |  | > 100 µM |  | > 100 µM |  | > 100 µM |  | > 100 |
| CS(C)(=O)=Nn1c(=O)n2n(c1=O)C1c3ccccc3C2c2ccccc21 |  | > 100 µM |  |  |  | > 100 µM |  | > 100 µM |  | > 100 µM |  | > 100 µM |  | > 100 µM |  | > 100 µM |  | > 100 µM |  | > 100 |
| CCN1CCN(c2nc3ccccc3nc2C(=O)c2ccc(OC)c(OC)c2)CC1 |  | 46.4 µM |  | > 100 µM |  | 35.8 µM |  | 39.4 µM |  | 57.4 µM |  | 36.5 µM |  |  |  | 34.1 µM |  | > 100 µM |  | 47.1 |
| Cc1ccc(OCC2=NC3S/C(=C/c4ccc([N+](=O)[O-])o4)C(=O)N3N2)cc1 (centres undefined) |  | 25.5 µM |  | 33.3 µM |  | 6.16 µM |  | 22.6 µM |  | 24.5 µM |  | 7.94 µM |  | 21.3 µM |  | 3.98 µM |  | 35.2 µM |  | 34.8 |
| COC(=O)C1CC23C4=C(CCC41)CCC1CN4CC(C)C(CC(OC(C)=O)C12COC(C)=O)C43O (centres undefined) |  | > 100 µM |  |  |  | > 100 µM |  | > 100 µM |  | > 100 µM |  | > 100 µM |  | > 100 µM |  | > 100 µM |  | > 100 µM |  | > 100 |
| Cc1cc(C)c2c(=O)n(CC(O)CN3CCN(CCOCCO)CC3)sc2n1 (centres undefined) |  | 24.6 µM |  | > 100 µM |  |  |  | 39.6 µM |  | 35.3 µM |  | 35.4 µM |  | 34.5 µM |  | > 100 µM |  | 34.8 µM |  | 47.8 |
| COc1ccc(-c2nn(-c3ccc(NC(=O)c4cc(Cl)cc(Cl)c4)cc3)cc2-c2ccncc2)cc1Cl | > 100 µM | > 100 µM | > 100 µM | > 100 µM | 0.494 µM | 3.26 µM | 2.26 µM | > 100 µM |  |  |  |  | 8.09 µM | > 100 µM | 1.86 µM | > 100 µM |  |  | 3.43 | > 100 |
| O=C(Cc1csc2nc(-c3ccc(Cl)cc3)cn12)N/N=C/c1ccccc1O | 4.74 µM | > 100 µM | 4.65 µM | > 100 µM | 3.36 µM | > 100 µM |  |  | 3.26 µM | > 100 µM | 5.56 µM | 94.2 µM | 2.93 µM | > 100 µM | 3.42 µM | > 100 µM | 38.8 µM | > 100 µM | 0.504 | 43.9 |
| COc1cccc(/C=N/[N-]C(N)=O)c1[O-].[Ni+2].[OH3+] |  | 1.52 µM |  | 2.11 µM |  | 4.13 µM |  | 2.07 µM |  | 2.57 µM |  | 2.2 µM |  | 1.65 µM |  | 2.31 µM |  | 2.55 µM |  | 2.09 |
| COc1cc(C2c3cc4c(cc3[C@@H](Nc3ccc(Oc5ccccc5)cc3)C3COC(=O)[C@H]23)OCO4)cc(OC)c1O (some centres undefined) |  | 20.1 µM |  | 7.9 µM |  | 5.86 µM |  | > 100 µM |  | > 100 µM |  | > 100 µM |  | 5.99 µM |  | > 32.4 µM |  | > 100 µM |  | > 100 |
| O=C(/C=C1\N=C(c2ccccc2)N(c2nc3c(Cl)cc(Cl)cc3s2)C1=O)/C=C/c1ccccc1 |  | > 100 µM |  |  |  | > 100 µM |  | > 100 µM |  | > 100 µM |  | > 100 µM |  | > 100 µM |  | > 100 µM |  | > 100 µM |  | > 100 |
